Assays:
Assay in all cases: Cancer cell growth, Cell Titer-Glo cell viability assay, 72 hours
Type in all cases: cell-based
[1] = test system: MDS-RAEB (myelodysplastic syndrome-excess blasts type) cell line SKM-1; details: SKM-1, 72 hours
From the text: (§1) In the examples, we used acute myelocytic leukemia (AML) OCI-AML-3, acute promyelocytic leukemia cell line NB-4, MDS-RAEB (myelodysplastic syndrome-excess blasts type) cell line SKM-1, human leukemia cell Nomo-1, acute myeloid leukemia cell line MOLM14, acute myeloid leukemia cell line MOLM13, acute myeloid leukemia cell line MV4-11, acute myeloid leukemia cell line HL-60, acute myeloid leukemia cell line OCI-AML-2, histiocytic lymphoma U-937, acute B cell leukemia cell line MEC-1, acute B cell leukemia cell line MEC-2, acute megakaryoblastic leukemia CMK, hamster lung cell CHL, hamster ovary cell CHO, human non-small cell lung cancer cell H1975, human non-small cell lung cancer cell H358, human small cell lung cancer cell H209, human lung adenocarcinoma cell H1395, human non-small cell lung cancer cell PC-9, human lung cancer cell H3122, human non-small cell lung cancer cell H2122, human non-small cell lung cancer cell H1915, human lung adenocarcinoma cell H1355, human non-small cell lung cancer cell HCC827, human breast cancer cell MDA-MB-231, human breast cancer cell MDA-MB-468, human breast cancer cell MCF-7, human breast cancer cell T47D, human breast cancer cell SK-Br-3, the above cells were purchased from ATCC.
(§2) Cell Titer-Glo® (Promega, USA) chemical self-luminescence cell viability assay kit was used to detect the number of viable cells by quantitatively measuring ATP in living cells, according to which to calculate GI50 and IC50.

[2] = test system: acute B cell leukemia cell line MEC-1; details: MEC-1, 72 hours
From the text: as §1, §2

[3] = test system: acute B cell leukemia cell line MEC-2; details: MEC-2, 72 hours
From the text: as §1, §2

[4] = test system: acute megakaryoblastic leukemia CMK
From the text: as §1, §2

[5] = test system: acute myelocytic leukemia (AML) OCI-AML-3; details: OCI-AML3, 72 hours
From the text: as §1, §2

[6] = test system: acute myeloid leukemia cell line HL-60; details: HL-60, 72 hours
From the text: as §1, §2

[7] = test system: acute myeloid leukemia cell line MOLM13; details: MOLM-13, 72 hours
From the text: as §1, §2

[8] = test system: acute myeloid leukemia cell line MOLM14; details: MOLM-14, 72 hours
From the text: as §1, §2

[9] = test system: acute myeloid leukemia cell line MV4-11; details: MV4-11, 72 hours
From the text: as §1, §2

[10] = test system: acute myeloid leukemia cell line OCI-AML-2; details: OCI-AML2, 72 hours
From the text: as §1, §2

[11] = test system: acute promyelocytic leukemia cell line NB-4; details: NB4, 72 hours
From the text: as §1, §2

hamster lung cell CHL = details: for GI50: CHL, 72 hours
From the text: as §1, §2

hamster ovary cell CHO = details: for GI50: CHO, 72 hours
From the text: as §1, §2

[12] = test system: histiocytic lymphoma U-937; details: U-937, 72 hours
From the text: as §1, §2

[13] = test system: human leukemia cell Nomo-1; details: Nomo-1, 72 hours
From the text: as §1, §2

Structure (SMILES) | GI50 ([1]; Homo sapiens) | GI50 ([2]; Homo sapiens, MEC1) | GI50 ([3]; MEC2) | GI50 [4] | GI50 ([5]; Homo sapiens, OCI-AML-3) | GI50 ([6]; Homo sapiens) | GI50 ([7]; Homo sapiens) | GI50 ([8]; Homo sapiens) | GI50 ([9]; Homo sapiens) | GI50 ([10]; Homo sapiens) | GI50 [11] | GI50 (hamster lung cell CHL) | GI50 (hamster ovary cell CHO) | GI50 ([12]; Homo sapiens) | GI50 ([13]; Homo sapiens) | also measured
COCCN[C@H]1CC[C@H](Nc2cc(-c3csc(OCC4CCOCC4)n3)c(Cl)cn2)CC1 [Compound 16, (1r,4r)-N^1-(5-chloro-4-(2-((tetrahydro-2H-pyran-4-yl)methoxy)thiazol-4-yl)pyridin-2-yl)-N^4-(2-methoxyethyl)cyclohexane-1,4-diamine] | 500 nM | 1400 nM | 970 nM | 1400 nM | 630 nM | 450 nM | 570 nM | 620 nM | 630 nM | 2100 nM | 580 nM | 3300 nM | 1300 nM | 600 nM | 1500 nM | –
COCCN[C@H]1CC[C@H](Nc2cc(-c3csc(SCC4CCOCC4)n3)c(Cl)cn2)CC1 [Compound 17, (1r, 4r)-N^1-(5-chloro-4-(2-(((tetrahydro-2H-pyran-4-yl)methyl)mercapto)thiazol-4-yl)pyridin-2-yl)-N^4-(2-methoxyethyl)cyclohexane-1,4-diamine] | – | – | – | 1100 nM | – | – | – | – | – | – | 350 nM | 5600 nM | 610 nM | – | – | GI50 [1]: 330 nM; GI50 [2]: 800 nM; GI50 [3]: 700 nM; GI50 [5]: 980 nM; GI50 [6]: 160 nM; GI50 [7]: 340 nM; GI50 [8]: 360 nM; GI50 [9]: 1100 nM; GI50 [10]: 800 nM; GI50 [12]: 300 nM; GI50 [13]: 930 nM
COCCN[C@H]1CC[C@H](Nc2cc(-c3csc(NCC4CC4)n3)c(Cl)cn2)CC1 [Compound 13, (1r,4r)-N^1-(5-chloro-4-(2-((cyclopropylmethyl)amino)thiazol-4-yl)pyridin-2-yl)-N^4-(2-methoxyethyl)cyclohexane-1,4-diamine] | 260 nM | 890 nM | 660 nM | 1100 nM | 420 nM | 320 nM | 440 nM | 330 nM | 740 nM | 600 nM | 340 nM | 1400 nM | 770 nM | 320 nM | 870 nM | –
COCCN[C@H]1CC[C@H](Nc2cc(-c3csc(NCC4CCOCC4)n3)ccn2)CC1 [Compound 18, (1r,4r)-N^1-(2-methoxyethyl)-N^4-(4-(2-(((tetrahydro-2H-pyran-4-yl)methyl)amino)thiazol-4-yl)pyridin-2-yl)cyclohexane-1,4-diamine] | 1100 nM | 2500 nM | 1700 nM | 4000 nM | 2100 nM | 980 nM | 1200 nM | 1200 nM | 910 nM | 1100 nM | 1300 nM | 1200 nM | 4100 nM | 1100 nM | 3000 nM | –
CNc1nc(-c2cc(N[C@H]3CC[C@H](NCCOC)CC3)ncc2Cl)cs1 [Compound 9, (1r,4r)-N^1-(5-chloro-4-(2-(methylamino)thiazol-4-yl)pyridin-2-yl)-N^4-(2-methoxyethyl)cyclohexane-1,4-diamine] | 750 nM | 1400 nM | 1100 nM | 1800 nM | 1100 nM | 420 nM | 1000 nM | 680 nM | 530 nM | 650 nM | 700 nM | 1900 nM | 1200 nM | 850 nM | 1300 nM | –
CCc1cnn2c(NCc3ccc[n+]([O-])c3)cc(N3CCCC[C@H]3CCO)nc12 [Dinaciclib, reference compound] | 10 nM | 11 nM | 10 nM | 9.9 nM | 11 nM | 8 nM | 3.3 nM | 4.5 nM | 7.6 nM | 13 nM | 10 nM | 180 nM | 160 nM | 3.6 nM | 34 nM | –
N[C@H]1CC[C@H](Nc2cc(-c3csc(NCC4CCOCC4)n3)c(Cl)cn2)CC1 [Compound 2, (1r,4r)-N^1-(5-chloro-4-(2-(((tetrahydro-2H-pyran-4-yl)methyl)amino)thiazol-4-yl)pyridin-2-yl)cyclohexane-1,4-diamine] | 85 nM | 270 nM | 140 nM | 370 nM | 140 nM | 550 nM | 150 nM | 140 nM | 140 nM | 9100 nM | 56 nM | 3500 nM | 2800 nM | 120 nM | 590 nM | –
COC[C@H](C)N[C@H]1CC[C@H](Nc2cc(-c3csc(NCC4CCOCC4)n3)c(Cl)cn2)CC1 [Compound 5, (1S,4r)-N^1-(5-chloro-4-(2-(((tetrahydro-2H-pyran-4-yl)methyl)amino)thiazol-4-yl)pyridin-2-yl)-N^4-((S)-1-methoxypropan-2-yl)cyclohexane-1,4-diamine] | 350 nM | 1300 nM | 770 nM | 1500 nM | 820 nM | 390 nM | 640 nM | 490 nM | 440 nM | 470 nM | 460 nM | 3600 nM | 1200 nM | 430 nM | 1000 nM | –
COCCN[C@H]1CC[C@H](Nc2cc(-c3csc(NCc4ccccc4)n3)c(Cl)cn2)CC1 [Compound 11, (1r,4r)-N^1-(4-(2-(benzylamino)thiazol-4-yl)-5-chloropyridin-2-yl)-N^4-(2-methoxyethyl)cyclohexane-1,4-diamine] | 170 nM | 470 nM | 320 nM | 470 nM | 220 nM | 73 nM | 280 nM | 160 nM | 330 nM | 330 nM | 270 nM | 1000 nM | 370 nM | 220 nM | 960 nM | –
COCCN[C@H]1CC[C@H](Nc2cc(-c3csc(NCC4CCCCC4)n3)c(Cl)cn2)CC1 [Compound 10, (1r,4r)-N^1-(5-chloro-4-(2-((cyclohexylmethyl)amino)thiazol-4-yl)pyridin-2-yl)-N^4-(2-methoxyethyl)cyclohexane-1,4-diamine] | 330 nM | 850 nM | 660 nM | 980 nM | 560 nM | 410 nM | 820 nM | 330 nM | 1100 nM | 600 nM | 490 nM | 8000 nM | 780 nM | 340 nM | 600 nM | –
NC1CCC(Nc2cc(-c3cccc(NCc4cccc(F)c4)n3)c(Cl)cn2)CC1 (centres unmarked) [HY-16462, reference compound] | – | – | – | 42 nM | – | – | – | – | – | – | 32 nM | 200 nM | 290 nM | – | – | GI50 [1]: 40 nM; GI50 [2]: 48 nM; GI50 [3]: 36 nM; GI50 [5]: 47 nM; GI50 [6]: 37 nM; GI50 [7]: 32 nM; GI50 [8]: 33 nM; GI50 [9]: 27 nM; GI50 [10]: 71 nM; inhibitory effect on normal cell CHL (in words) (hamster lung cell CHL; CHL cells): certain inhibitory effects; inhibitory effect on normal cell CHO (in words) (hamster ovary cell CHO; CHO cells): certain inhibitory effects; GI50 [12]: 31 nM; GI50 [13]: 63 nM
